According to ChEMBL document CHEMBL1143275, “Positive allosteric modulators of the metabotropic glutamate receptor subtype 4 (mGluR4). Part II: Challenges in hit-to-lead” (Bioorg Med Chem Lett, 2009):
pEC50: −log10 of the molar value. Calls of active or inactive are those of the source. The rule behind the calls is not given here.

Columns and labels:
[1] = molecular target: T1, Metabotropic glutamate receptor 4 (Homo sapiens, UniProt Q14833); assay: Activation of human mGluR4 expressed in CHO cells coexpressing Gqi5 protein assessed as potentiation of glutamate-induced response; type: cell-based
[2] = molecular target: T1, Metabotropic glutamate receptor 4; assay: Activation of human mGluR4 expressed in CHO cells coexpressing Gqi5 protein assessed as potentiation of glutamate-induced response relative to glutamate alone; type: cell-based; design: concentration or dose not given beside the values
[3] = molecular target: Metabotropic glutamate receptor 8 (Homo sapiens) (UniProt O00222); assay: Antagonist activity at mGluR8 assessed as effect on glutamate-induced response; type: functional
[4] = molecular target: T1, Metabotropic glutamate receptor 4; assay: Activation of human mGluR4 expressed in CHO cells coexpressing Gqi5 protein in absence of glutamate; type: cell-based
[5] = molecular target: Metabotropic glutamate receptor 2 (Homo sapiens) (UniProt Q14416); assay: Antagonist activity at mGluR2 assessed as effect on glutamate-induced response; type: functional
[6] = molecular target: Metabotropic glutamate receptor 7 (Homo sapiens) (UniProt Q14831); assay: Antagonist activity at mGluR7 assessed as effect on glutamate-induced response; type: functional
[7] = molecular target: Metabotropic glutamate receptor 1 (Homo sapiens) (UniProt Q13255); assay: Antagonist activity at mGluR1 assessed as effect on glutamate-induced response; type: functional; design: scale not given: the % may be the effect or the level left
[8] = molecular target: T1, Metabotropic glutamate receptor 4; assay: Activation of human mGluR4 expressed in CHO cells coexpressing Gqi5 protein assessed as fold shifting of glutamate-induced response at 30 uM; type: cell-based
[9] = molecular target: Metabotropic glutamate receptor 5 (Homo sapiens) (UniProt P41594); assay: Antagonist activity at mGluR5 assessed as effect on glutamate-induced response; type: functional

T1 sequence (Q14833 whole entry): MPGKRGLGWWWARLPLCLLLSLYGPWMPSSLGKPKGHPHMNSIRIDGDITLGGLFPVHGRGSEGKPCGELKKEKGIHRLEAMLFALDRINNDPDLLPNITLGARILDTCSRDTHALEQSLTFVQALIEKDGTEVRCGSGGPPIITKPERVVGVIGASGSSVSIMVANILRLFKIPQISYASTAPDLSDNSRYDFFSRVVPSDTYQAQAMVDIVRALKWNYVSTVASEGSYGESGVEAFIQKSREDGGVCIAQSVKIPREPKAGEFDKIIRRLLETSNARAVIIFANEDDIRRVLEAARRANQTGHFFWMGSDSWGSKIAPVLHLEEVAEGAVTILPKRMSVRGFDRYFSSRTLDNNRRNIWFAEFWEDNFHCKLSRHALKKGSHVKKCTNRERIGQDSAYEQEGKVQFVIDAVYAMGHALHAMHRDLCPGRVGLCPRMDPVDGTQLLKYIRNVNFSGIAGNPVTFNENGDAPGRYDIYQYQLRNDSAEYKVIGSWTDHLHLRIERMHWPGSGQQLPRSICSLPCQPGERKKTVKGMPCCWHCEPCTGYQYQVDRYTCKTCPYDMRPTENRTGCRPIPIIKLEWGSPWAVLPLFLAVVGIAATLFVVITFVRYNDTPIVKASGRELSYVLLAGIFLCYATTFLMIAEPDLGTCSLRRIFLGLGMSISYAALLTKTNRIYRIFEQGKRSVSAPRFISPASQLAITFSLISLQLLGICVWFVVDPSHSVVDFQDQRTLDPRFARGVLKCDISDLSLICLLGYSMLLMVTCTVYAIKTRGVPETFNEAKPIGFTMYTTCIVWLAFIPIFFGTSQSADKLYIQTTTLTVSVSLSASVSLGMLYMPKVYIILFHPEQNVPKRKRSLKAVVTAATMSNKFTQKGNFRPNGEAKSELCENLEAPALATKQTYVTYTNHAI
Metabotropic glutamate receptor 1 (Homo sapiens), sequence (Q13255 19-1194 limits assumed): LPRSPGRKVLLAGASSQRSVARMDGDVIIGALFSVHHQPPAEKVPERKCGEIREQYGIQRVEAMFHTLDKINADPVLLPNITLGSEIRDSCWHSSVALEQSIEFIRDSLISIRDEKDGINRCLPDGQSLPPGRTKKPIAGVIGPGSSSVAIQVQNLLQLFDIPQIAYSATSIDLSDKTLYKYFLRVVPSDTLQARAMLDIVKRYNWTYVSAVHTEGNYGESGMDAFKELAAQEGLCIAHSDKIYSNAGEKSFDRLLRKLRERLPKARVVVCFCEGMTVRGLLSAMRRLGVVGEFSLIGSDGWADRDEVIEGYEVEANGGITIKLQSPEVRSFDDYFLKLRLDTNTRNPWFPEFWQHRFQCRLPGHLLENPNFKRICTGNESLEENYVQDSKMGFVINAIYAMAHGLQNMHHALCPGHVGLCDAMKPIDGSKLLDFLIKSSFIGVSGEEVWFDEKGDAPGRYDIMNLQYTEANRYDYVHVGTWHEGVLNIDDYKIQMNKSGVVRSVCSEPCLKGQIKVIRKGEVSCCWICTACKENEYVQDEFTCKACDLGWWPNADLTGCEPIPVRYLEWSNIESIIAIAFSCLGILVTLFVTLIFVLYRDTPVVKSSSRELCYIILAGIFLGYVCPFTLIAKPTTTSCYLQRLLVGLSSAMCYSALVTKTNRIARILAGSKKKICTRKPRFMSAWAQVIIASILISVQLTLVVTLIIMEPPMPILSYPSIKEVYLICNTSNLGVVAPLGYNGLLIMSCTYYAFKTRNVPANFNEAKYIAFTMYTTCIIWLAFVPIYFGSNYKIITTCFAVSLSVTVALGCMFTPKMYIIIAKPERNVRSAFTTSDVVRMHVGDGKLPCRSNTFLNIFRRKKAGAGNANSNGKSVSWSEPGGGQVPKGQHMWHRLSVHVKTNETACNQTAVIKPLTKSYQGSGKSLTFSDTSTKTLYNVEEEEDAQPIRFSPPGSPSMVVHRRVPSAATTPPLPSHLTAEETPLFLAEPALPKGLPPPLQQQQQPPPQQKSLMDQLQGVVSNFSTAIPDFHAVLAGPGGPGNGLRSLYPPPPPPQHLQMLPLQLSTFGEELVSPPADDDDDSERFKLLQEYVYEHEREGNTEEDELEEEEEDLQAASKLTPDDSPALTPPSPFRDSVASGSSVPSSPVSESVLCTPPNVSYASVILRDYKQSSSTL
Metabotropic glutamate receptor 2 (Homo sapiens), sequence (Q14416 19-872 limits assumed): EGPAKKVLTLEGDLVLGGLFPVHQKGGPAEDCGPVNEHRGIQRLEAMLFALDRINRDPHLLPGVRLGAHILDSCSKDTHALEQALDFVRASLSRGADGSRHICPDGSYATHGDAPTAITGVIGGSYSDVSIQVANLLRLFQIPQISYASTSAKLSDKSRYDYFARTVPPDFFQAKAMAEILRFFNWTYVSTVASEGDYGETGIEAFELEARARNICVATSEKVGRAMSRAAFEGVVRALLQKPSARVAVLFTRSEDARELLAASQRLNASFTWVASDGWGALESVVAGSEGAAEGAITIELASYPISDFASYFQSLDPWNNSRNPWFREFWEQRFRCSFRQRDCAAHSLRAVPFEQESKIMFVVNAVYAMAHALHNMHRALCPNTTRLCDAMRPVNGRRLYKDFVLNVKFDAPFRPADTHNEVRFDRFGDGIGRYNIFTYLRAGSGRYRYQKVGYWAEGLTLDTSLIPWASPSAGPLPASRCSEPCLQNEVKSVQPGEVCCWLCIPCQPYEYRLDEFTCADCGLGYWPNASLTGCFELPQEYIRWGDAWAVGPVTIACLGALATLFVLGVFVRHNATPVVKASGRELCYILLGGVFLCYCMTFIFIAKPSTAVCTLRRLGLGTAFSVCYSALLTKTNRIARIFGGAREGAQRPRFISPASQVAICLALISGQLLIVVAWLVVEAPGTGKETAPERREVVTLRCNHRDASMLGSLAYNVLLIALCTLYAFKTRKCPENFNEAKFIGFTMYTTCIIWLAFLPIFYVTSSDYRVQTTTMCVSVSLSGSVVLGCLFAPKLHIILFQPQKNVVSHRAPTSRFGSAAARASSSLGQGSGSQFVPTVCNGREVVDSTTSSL
Metabotropic glutamate receptor 8 (Homo sapiens), sequence (O00222 whole entry): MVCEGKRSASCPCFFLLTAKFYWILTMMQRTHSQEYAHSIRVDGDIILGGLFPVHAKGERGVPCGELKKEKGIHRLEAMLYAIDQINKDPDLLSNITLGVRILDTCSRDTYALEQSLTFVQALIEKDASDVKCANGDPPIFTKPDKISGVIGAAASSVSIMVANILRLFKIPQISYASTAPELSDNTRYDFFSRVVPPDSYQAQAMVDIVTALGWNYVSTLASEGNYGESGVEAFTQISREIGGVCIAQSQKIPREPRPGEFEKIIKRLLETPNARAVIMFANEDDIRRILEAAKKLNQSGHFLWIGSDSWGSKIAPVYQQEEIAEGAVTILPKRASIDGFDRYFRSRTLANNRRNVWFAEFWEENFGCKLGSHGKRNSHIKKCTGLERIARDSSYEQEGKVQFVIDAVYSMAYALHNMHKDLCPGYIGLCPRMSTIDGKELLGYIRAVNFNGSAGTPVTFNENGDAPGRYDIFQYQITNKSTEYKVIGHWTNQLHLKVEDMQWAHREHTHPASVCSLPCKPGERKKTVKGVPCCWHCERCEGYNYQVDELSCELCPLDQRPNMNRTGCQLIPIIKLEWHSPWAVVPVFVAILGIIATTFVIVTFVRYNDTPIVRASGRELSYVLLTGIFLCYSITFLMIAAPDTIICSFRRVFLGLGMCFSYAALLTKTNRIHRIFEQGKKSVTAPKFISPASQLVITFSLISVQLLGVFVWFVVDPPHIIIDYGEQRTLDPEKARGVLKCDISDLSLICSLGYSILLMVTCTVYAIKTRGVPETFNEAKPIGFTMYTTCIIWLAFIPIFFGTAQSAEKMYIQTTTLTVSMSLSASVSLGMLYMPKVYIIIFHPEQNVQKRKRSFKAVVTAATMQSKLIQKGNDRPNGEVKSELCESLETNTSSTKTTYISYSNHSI
Metabotropic glutamate receptor 7 (Homo sapiens), sequence (Q14831 whole entry): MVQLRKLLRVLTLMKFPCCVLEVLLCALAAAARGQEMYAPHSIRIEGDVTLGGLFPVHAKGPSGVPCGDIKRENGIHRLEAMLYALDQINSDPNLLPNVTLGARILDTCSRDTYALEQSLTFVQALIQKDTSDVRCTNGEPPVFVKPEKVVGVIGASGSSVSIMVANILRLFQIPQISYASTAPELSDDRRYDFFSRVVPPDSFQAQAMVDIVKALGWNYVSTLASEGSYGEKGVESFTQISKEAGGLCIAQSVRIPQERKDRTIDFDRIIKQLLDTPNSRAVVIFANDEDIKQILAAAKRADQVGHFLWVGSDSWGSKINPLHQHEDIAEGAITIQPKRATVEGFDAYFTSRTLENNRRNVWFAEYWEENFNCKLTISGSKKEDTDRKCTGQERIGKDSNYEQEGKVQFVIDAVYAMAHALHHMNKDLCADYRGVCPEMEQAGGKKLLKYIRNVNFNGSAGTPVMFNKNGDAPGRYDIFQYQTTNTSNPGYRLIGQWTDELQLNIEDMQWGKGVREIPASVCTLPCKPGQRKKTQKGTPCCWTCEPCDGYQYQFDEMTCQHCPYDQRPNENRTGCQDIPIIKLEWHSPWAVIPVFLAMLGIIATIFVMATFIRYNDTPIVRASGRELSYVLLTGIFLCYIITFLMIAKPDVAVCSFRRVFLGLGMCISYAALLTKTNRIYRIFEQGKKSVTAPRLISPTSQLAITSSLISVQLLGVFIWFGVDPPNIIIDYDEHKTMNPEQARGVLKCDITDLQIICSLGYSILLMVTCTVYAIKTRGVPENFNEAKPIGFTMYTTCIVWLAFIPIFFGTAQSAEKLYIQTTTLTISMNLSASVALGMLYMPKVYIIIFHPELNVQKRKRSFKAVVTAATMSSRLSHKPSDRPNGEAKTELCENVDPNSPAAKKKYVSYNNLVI

pEC50 [1]	Activity [2] [%]	Compound	further results
< 5.00	87	CC(c1ccccc1)C1Nc2ccccc2C(=O)N1c1cccc(F)c1 (stereo not given)	
< 5.30	87	Cc1nc2ccccc2nc1N/N=C/c1ccc(F)cc1	
5.77	144	Cc1nc2ccccc2nc1N/N=C/c1ccc(O)cc1	Activity [3]: inactive; Activity [4]: inactive; Activity [5]: inactive; Activity [6]: inactive; Activity [7]: inactive; fold change (FC) [8]: 36; Activity [9]: inactive
5.62	136	Cc1nc2ccccc2nc1N/N=C/c1cccc(O)c1	
5.36	129	Cc1nc2ccccc2nc1N/N=C/c1ccccc1	

Further lines, the compound ahead of its results:

Compound	pEC50 [1]	Activity [2] [%]	further results
COc1ccccc1/C=N/Nc1nc2ccccc2nc1C			Activity [1]: inactive
Cc1ccc(N2C(=O)c3ccccc3NC2C(C)c2ccccc2)cc1 (stereo not given)	5.52	129	
O=C(Nc1ccccc1)[C@]12C[C@H]1/C(=N\O)c1ccccc1O2			Activity [7]: 30%
Cc1nc2ccccc2nc1N/N=C/c1ccccc1O	5.39	57	
COC(=O)c1ccc(N2C(=O)c3ccccc3NC2C(C)c2ccccc2)cc1 (stereo not given)	< 5.00	69	
